Measurements reported in patent US20050250944A1, “Synthesis and uses of synephrine derivatives” (priority 2004, published 2005).
“Also recorded” adds a separate entry of the source. Counter-ions that a name gives are not always drawn.

Tests used:
adipose tissue = conditions: Pilkington, Cernohorsky, Muhlbachova, Wenkeova et al.; cited from earlier work
human adipocytes = assay: Test of lipolytic capacity on human adipocytes (glycerol release); format: cell-based; conditions: for maximal lipolytic response elicited: glycerol released by human abdominal subcutaneous adipocytes, 90 min at 37° C., basal 0%, isoproterenol 100%
Description: The lipolytic capacity of the Synephrine Derivatives can be tested in human adipocytes. For the sake of convenience, for Examples 21 to 24, the known 2-isopropylamino-1-(4-hydroxyphenyl)-ethanol hydrochloride (Formula shown in Example 12, above, also known as isopropylnorsynephrine hydrochloride) is used here as a non-limiting example of a Synephrine Derivative.
In this example, the lipolytic property of isopropylnorsynephrine hydrochloride was compared to that of synephrine hydrochloride (Formula shown in Example 15). The index of lipolytic activity chosen was the glycerol released by freshly originated human adipocytes with reference to basal (0%, without any drug) and maximal (100%) responses to a standard lipolytic reference: isoproterenol.
Adipocytes were isolated from samples of subcutaneous abdominal adipose depot freshly obtained during abdominal lipectomy. The surgical interventions were conducted under general anaesthesia on ten healthy women undergoing abdominal plastic surgery. The human samples were transferred in less than 15 min to the laboratory for adipocyte preparation. The human abdominal subcutaneous adipocytes were obtained by collagenase digestion of the fresh samples of adipose tissue. The isolation, washing, handling and distribution of fat cells were carried out according to the technique described in Carpene, “Assays of Adrenergic Receptors: Including Lipolysis and Binding Measurements”, from Methods in Molecular Biology, supra. Briefly, extemporaneous dilutions of the tested drugs were added in 4 μl in plastic vials which received 400 μl of freshly prepared adipocyte suspension. The given concentrations were the final concentrations in which the cells were incubated for 90 min at 37° C. under gentle shaking. At the end of the experiment, the glycerol released by the cells was determined on an aliquot as described in Carpene, Id.
The mean lipid content in the incubation vials was 17.6±1.0 mg/400 μl, which corresponded to approximately 500,000 cells/vial.

β-adrenergic = conditions: literature; cited from earlier work
[1] = literature; cited from earlier work
β3-adrenoceptors = molecular target: T1, β3-adrenoceptors (Rattus norvegicus, UniProt P26255); conditions: Carpene et al. 1999; cited from earlier work
T1 construct: comparative studies in mammalian fat cells; host or cells: mammalian fat cells (adipocytes), endogenous receptor
T1 sequence (P26255 whole entry): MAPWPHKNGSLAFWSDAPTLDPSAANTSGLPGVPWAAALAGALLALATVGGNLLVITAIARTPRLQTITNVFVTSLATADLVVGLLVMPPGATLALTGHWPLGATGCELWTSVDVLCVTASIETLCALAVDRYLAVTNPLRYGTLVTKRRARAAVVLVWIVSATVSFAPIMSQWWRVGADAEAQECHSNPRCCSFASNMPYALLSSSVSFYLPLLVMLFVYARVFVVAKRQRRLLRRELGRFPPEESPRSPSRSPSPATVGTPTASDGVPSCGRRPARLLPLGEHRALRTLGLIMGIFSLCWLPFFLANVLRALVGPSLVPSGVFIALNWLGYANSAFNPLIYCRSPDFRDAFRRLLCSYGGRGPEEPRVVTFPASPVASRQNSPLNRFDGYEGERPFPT

human fat cells = conditions: Carpene et al.; cited from earlier work
rat adipocyte = conditions: Carpene et al.; cited from earlier work
[2] = long use in China; Zhao et al. 1989; cited from earlier work
[3] = ratio to synephrine hydrochloride

Which “lipid mobilization properties in vitro” value (adipose tissue) does the source give for `CCCCNCC(O)c1ccc(O)cc1` (stereo not drawn) [Bamethan, 2-butylamino-1-(4-hydroxyphenyl)-ethanol] here?
Its value is “have lipid mobilization properties in vitro”.

With `CCNCC(O)c1ccc(O)cc1` (stereo not drawn) [ethylnorsynephrine, 2-ethylamino-1-(4-hydroxyphenyl)-ethanol] as the compound, how does the “lipid mobilization properties in vitro” value (adipose tissue) read?
Its value is “have lipid mobilization properties in vitro”.

Which “lipolytic effect at low concentration versus synephrine hydrochloride” value (human adipocytes; 1μg/mL versus synephrine hydrochloride at 100 μg/mL) does the source give for `CC(C)NCC(O)c1ccc(O)cc1` (stereo not drawn) [isopropylnorsynephrine hydrochloride, 2-Isopropylamino-1-(4-hydroxyphenyl)-ethanol hydrochloride] here?
The value was “still far greater than that of synephrine hydrochloride”.

What about the “maximal lipolytic response elicited” value (human adipocytes; FIG. 1) of the same compound?
The value was roughly 60%.

And the “lipolytic property on human fat cells (in words)” value (human adipocytes; human adipocytes, FIG. 1, hydrochloride)?
The value was “strong lipolytic property; also recorded: superior than synephrine hydrochloride”.

What about the “capacity to stimulate human adipocytes lipolysis compared to synephrine hydrochloride” value (human adipocytes; [3]) of the same compound?
The value was 2 times.

What about the “lipolytic potency relative to synephrine hydrochloride” value (human adipocytes; [3]) of the same compound?
The value was roughly 100 times.

Which “adrenergic activity (in words)” value (β-adrenergic) does the source give for `CC(C)NCC(O)c1ccc(O)cc1` (stereo not drawn) [isopropylnorsynephrine, 2-isopropylamino-1-(4-hydroxyphenyl)-ethanol] here?
The value was “pure β-adrenergic activity”.

What about the “lipid mobilization properties in vitro” value (adipose tissue) of the same compound?
Its value is “have lipid mobilization properties in vitro”.

What about the “plasma free fatty acid level in vivo” value [1] of the same compound?
The value was “can increase plasma free fatty acid level in vivo”.

Which results are given for `NCC(O)c1ccc(O)cc1` (stereo not drawn) [octopamine, 2-amino-1-(4-hydroxyphenyl)-ethanol]?
selective action on β3-adrenoceptors (β3-adrenoceptors): can selectively act on β3-adrenoceptors; also recorded: selective activation of β3-adrenoceptor; effect on human fat cells (lipolysis) (human fat cells): ineffective; rat adipocyte lipolysis (rat adipocyte): effective

With `CC(C)(Cc1ccccc1)NCC(O)c1ccc(O)cc1` (stereo not drawn) [phenyl-t-butylnorsynephrine, 2-(phenyl-t-butylamino)-1-(4-hydroxyphenyl)-ethanol] as the compound, how does the “lipid mobilization properties in vitro” value (adipose tissue) read?
Its value is “have lipid mobilization properties in vitro”.

For `CCCNCC(O)c1ccc(O)cc1` (stereo not drawn) [propylnorsynephrine, 2-propylamino-1-(4-hydroxyphenyl)-ethanol], which “lipid mobilization properties in vitro” value (adipose tissue) is on record?
Its value is “have lipid mobilization properties in vitro”.

For `CNCC(O)c1ccc(O)cc1` (stereo not drawn) [synephrine hydrochloride, 2-Methylamino-1-(4-hydroxyphenyl)-ethanol hydrochloride, reference compound], which “maximal lipolytic response elicited” value (human adipocytes; FIG. 1) is on record?
The value was roughly 30%.

With `CNCC(O)c1ccc(O)cc1` (stereo not drawn) [synephrine, 2-methylamino-1-(4-hydroxyphenyl)-ethanol] as the compound, how does the “adrenergic activity (in words)” value (β-adrenergic) read?
The value was “both α- and β-adrenergic activity”.

And the “lipid mobilization properties in vitro” value (adipose tissue)?
Its value is “have lipid mobilization properties in vitro”.

What about the “plasma free fatty acid level in vivo” value [1] of the same compound?
Its value is “can increase plasma free fatty acid level in vivo”.

What about the “effect on blood pressure” value [2] of the same compound?
Its value is “increase blood pressure”.

With `CC(C)(C)NCC(O)c1ccc(O)cc1` (stereo not drawn) [tert-butylnorsynephrine, 2-tert-butylamino-1-(4-hydroxyphenyl)-ethanol] as the compound, how does the “lipid mobilization properties in vitro” value (adipose tissue) read?
Its value is “have lipid mobilization properties in vitro”.
